{
  "source": "patent US20230312587A1",
  "about": "“PTERIDINONE COMPOUNDS AND USES THEREOF” (Vertex Pharmaceutical Incorporated, priority 2018, published 2023)",
  "key": {"[1]": {"tested_on": "DU4475 cells, non-targeting control shRNA", "experiment": "Cell viability, DU4475 control shRNA", "assay_type": "cell-based", "experimental": "(§1) Colo-205 (ATCC, catalog #CCL-222), HepG2 (ATCC, catalog #HB-8065), CFPAC1 (ATCC, catalog #CRL-1918), or DU4475 (ATCC, catalog #HTB-123) cells are plated in 10 mL of complete DMEM cell culture media [DMEM (Life Technologies, product #11960-051) media supplemented with 10% FBS (Hyclone, catalog #SH30071.03), antimycotic/antibiotic (Life Technologies, product #15240-062), and Glutamax (Life Technologies, product #35050-061)] at 3×10^6 cells per 10 cm cell culture plate (Corning, product #430167). Cells are allowed to attach and grow overnight at 37° C. in humidified 5% CO2. Cells are transduced by addition of 1×10^6 infectious units of lentivirus encoding WFS1 shRNA (Santa Cruz Biotech, catalog #sc-61804-V) or a non-targeting control shRNA (Santa Cruz Biotech, catalog #sc-108080) and 10 ug/ml of Polybrene® (Santa Cruz Biotech, catalog #sc-134220) to the cell culture media. After 48 hours transduced cells are selected by the addition of 1 microgram/mL of puromycin (Life Technologies, catalog #A1113803) to the cell culture media."}, "[2]": {"tested_on": "Colo-205 cells, shRNA targeting WFS1", "experiment": "Cell viability, Colo-205 WFS1 shRNA", "assay_type": "cell-based", "settings": "for increase in the IC50 in reducing cell viability on WFS1 knockdown: DU4475, Colo-205 and HepG2 cells, WFS1 shRNA vs control cells; for IC50: Colo-205 WFS1 shRNA", "experimental": "as §1"}, "[3]": {"tested_on": "HepG2 cells, non-targeting control shRNA", "experiment": "Cell viability, HepG2 control shRNA", "assay_type": "cell-based", "experimental": "as §1"}, "[4]": {"tested_on": "HepG2 cells, shRNA targeting WFS1", "experiment": "Cell viability, HepG2 WFS1 shRNA", "assay_type": "cell-based", "experimental": "as §1"}, "DU4475 WFS1 shRNA": {"tested_on": "DU4475 WFS1 shRNA", "experiment": "TCF reporter activity, DU4475 WFS1 shRNA", "assay_type": "cell-based", "experimental": "as §1"}, "DU4475 Control shRNA": {"tested_on": "DU4475 Control shRNA", "experiment": "TCF reporter activity, DU4475 Control shRNA", "assay_type": "cell-based", "experimental": "as §1"}, "Colo-205 Control shRNA": {"tested_on": "Colo-205 Control shRNA", "experiment": "TCF reporter activity, Colo-205 Control shRNA", "assay_type": "cell-based", "experimental": "as §1"}, "Colo-205 WFS1 shRNA": {"tested_on": "Colo-205 WFS1 shRNA", "experiment": "TCF reporter activity, Colo-205 WFS1 shRNA", "assay_type": "cell-based", "experimental": "as §1"}, "[5]": {"tested_on": "Colo-205 cells, non-targeting control shRNA", "experiment": "Cell viability, Colo-205 control shRNA", "assay_type": "cell-based", "experimental": "as §1"}, "[6]": {"tested_on": "DU4475 cells, shRNA targeting WFS1", "experiment": "Cell viability, DU4475 WFS1 shRNA", "assay_type": "cell-based", "experimental": "as §1"}, "[7]": {"tested_on": "Hek293 cells over-expressing WFS1", "experiment": "Calcium flux in Hek293 cells over-expressing WFS1 vs empty vector", "assay_type": "cell-based", "settings": "induction of calcium flux", "description": "To determine the effect of WFS1 over-expression on compound mediated effects on calcium flux and cell viability, Hek293 cells were transduced with either an empty retroviral vector or a retroviral vector expressing full length WFS1 cDNA. Hek293 cells transduced with the WFS1 encoding retrovirus expressed greater than 100 times the amount of WFS1 protein than empty vector Hek293 cells (FIG. 3)."}, "lung PDX models": {"tested_on": "lung PDX models", "experiment": "Response of lung PDX models with highest and lowest WFS1 gene expression", "assay_type": "in vivo", "settings": "10 highest and 10 lowest WFS1 expressing lung PDX models", "description": "Finally, an in vivo study was run to evaluate the relationship between WFS1 expression in patient derived xenografts (PDX). To do this, the 10 lung PDX models with the highest WFS1 gene expression and the 10 lung PDX models with the lowest WFS1 gene expression were selected from the Oncotest compendium."}, "[8]": {"tested_on": "global gene expression in HepG2 cells", "experiment": "Global gene expression changes in HepG2 vs WFS1 depleted cells", "assay_type": "cell-based", "settings": "HepG2, 6 hours of exposure", "description": "In contrast WFS1 depletion had no effect on thapsigargin induced changes in global gene expression (FIG. 7.)"}, "[9]": {"tested_on": "HepG2 cells with CRISPR/Cas9 mediated WFS1 knockout (KO)", "experiment": "Calcium flux in parental HepG2 vs HepG2 WFS1 knockout cells", "assay_type": "cell-based", "settings": "30 minutes after compound addition", "description": "A double cleavage strategy was employed to remove large fragments from the WFS1 locus. Suitable target sites in WFS1 exon 8 were first selected using CRISPR design software to rank suitable target sites and computationally predict off-target sites for each intended target. Six top guide RNA sequences are identified and screened for activity using the Surveyor Mutation Detection Kit (Integrated DNA Technologies). Then, the best 2 guide RNAs were cloned into GeneArt OFP CRISPR nuclease vectors (Thermofisher, Cat #A21174) separately and co-transfected into HepG2 cells using nucleofection (4D Nucleofector X, Lonza). Cells were sorted by FACS 48 hrs later to enrich for the OFP positive cell population. The OFP positive cell population were plated into 96-well plates at 0.5-5 cells/well to isolate clonal cell lines. After allowing cells to expand for 2-3 weeks, plates were inspected for presence of colonies. When colonies became more than 70% confluent, they were dissociated with trypsin and were further expanded. Cell clones with homozygous double cleavage of WFS1 exon 8 were detected with PCR and confirmed with DNA sequencing."}},
  "note": "Like-named read-outs stand apart in the source and are kept apart here.",
  "data": [
    {"smiles": "COc1c(F)cc(Cn2cc(CNc3nc(C)c4c(n3)N(C)[C@@H](C)C(=O)N4)cn2)cc1F", "note": "[Compound 46, (7S)-2-(((1-(3,5-difluoro-4-methoxybenzyl)-1H-pyrazol-4-yl)methyl)amino)-4,7,8-trimethyl-7,8-dihydropteridin-6(5H)-one]", "values": [
      {"measurement": "melting point", "result": "136 to 138", "unit": "°C"}
    ]},
    {"smiles": "Cc1nc(N[C@H]2C[C@H](Oc3cc(F)c(F)c(F)c3)C2)nc2c1N(C)C(=O)[C@H](C)N2C", "note": "[Compound 253, (7S)-4,5,7,8-tetramethyl-2-((trans-3-(3,4,5-trifluorophenoxy)cyclobutyl)amino)-7,8-dihydropteridin-6(5H)-one]", "values": [
      {"measurement": "IC50", "setting": "[1]; Homo sapiens, DU-4475", "result": 0.1, "unit": "µM"},
      {"measurement": "increase in the IC50 in reducing cell viability on WFS1 knockdown", "setting": "[2]", "result": "greater than 50 fold"},
      {"measurement": "IC50", "setting": "[2]; Homo sapiens", "result": "> 9", "unit": "µM"},
      {"measurement": "IC50", "setting": "[3]; Homo sapiens", "result": 0.2, "unit": "µM"},
      {"measurement": "IC50", "setting": "[4]; Homo sapiens", "result": 17, "unit": "µM"},
      {"measurement": "IC50", "setting": "DU4475 WFS1 shRNA; Homo sapiens, DU-4475", "result": 1, "unit": "µM"},
      {"measurement": "IC50", "setting": "DU4475 Control shRNA; Homo sapiens, DU-4475", "result": 0.2, "unit": "µM"},
      {"measurement": "IC50", "setting": "Colo-205 Control shRNA; Homo sapiens", "result": 0.2, "unit": "µM"},
      {"measurement": "IC50", "setting": "Colo-205 WFS1 shRNA; Homo sapiens", "result": 1.5, "unit": "µM"},
      {"measurement": "IC50", "setting": "[5]; Homo sapiens", "result": 0.14, "unit": "µM"},
      {"measurement": "IC50", "setting": "[6]; Homo sapiens, DU-4475", "result": 7.8, "unit": "µM"}
    ]},
    {"smiles": "Cc1nc(NCc2cnn(Cc3ccc(C(F)(F)F)nc3)c2)nc2c1NC(=O)[C@H](C)N2C", "note": "[Compound 136, (7S)-4,7,8-trimethyl-2-(((1-((6-(trifluoromethyl)pyridin-3-yl)methyl)-111-pyrazol-4-yl)methyl)amino)-7,8-dihydropteridin-6(5H)-one]", "values": [
      {"measurement": "IC50", "setting": "[1]", "result": 0.08, "unit": "µM"},
      {"measurement": "IC50", "setting": "[2]", "result": "> 9", "unit": "µM"},
      {"measurement": "increase in the IC50 in reducing cell viability on WFS1 knockdown", "setting": "[2]", "result": "greater than 50 fold"},
      {"measurement": "reduction in the EC50 on over-expression of WFS1", "setting": "[7]", "result": "approximately 10 fold"},
      {"measurement": "IC50", "setting": "[3]", "result": 0.26, "unit": "µM"},
      {"measurement": "association between WFS1 gene expression and response in PDX models", "setting": "lung PDX models", "result": "strong association"},
      {"measurement": "effect of WFS1 depletion on changes in global gene expression", "setting": "[8]", "result": "prevented Compound 136 from causing changes"},
      {"measurement": "IC50", "setting": "[4]", "result": 2.2, "unit": "µM"},
      {"measurement": "IC50", "setting": "DU4475 WFS1 shRNA", "result": 0.7, "unit": "µM"},
      {"measurement": "effect of WFS1 depletion on ability to induce calcium flux", "setting": "[9]", "result": "completely eliminated"},
      {"measurement": "IC50", "setting": "DU4475 Control shRNA", "result": 0.09, "unit": "µM"},
      {"measurement": "IC50", "setting": "Colo-205 Control shRNA", "result": 0.1, "unit": "µM"},
      {"measurement": "IC50", "setting": "Colo-205 WFS1 shRNA", "result": 0.7, "unit": "µM"},
      {"measurement": "IC50", "setting": "[5]", "result": 0.05, "unit": "µM"},
      {"measurement": "IC50", "setting": "[6]", "result": 6.1, "unit": "µM"}
    ]}
  ]
}
